Among the data in patent publication US5919653A, “Nucleic acids encoding a human glycine transporter” (Allelix Neuroscience Inc., priority 1996, dated 1999) are IC50 values, retold here.

Structures are written as SMILES. pIC50: −log10 of the molar value.

In the test the target is human GlyT-2 glycine transporter (clone pHGT2, SEQ ID 20 nucleic acid / SEQ ID 21 protein) (Homo sapiens, UniProt Q9Y345, I279N/I611V). Put plainly: cell-based.
Chain of human GlyT-2 glycine transporter (clone pHGT2, SEQ ID 20 nucleic acid / SEQ ID 21 protein) (Q9Y345 whole entry I279N/I611V): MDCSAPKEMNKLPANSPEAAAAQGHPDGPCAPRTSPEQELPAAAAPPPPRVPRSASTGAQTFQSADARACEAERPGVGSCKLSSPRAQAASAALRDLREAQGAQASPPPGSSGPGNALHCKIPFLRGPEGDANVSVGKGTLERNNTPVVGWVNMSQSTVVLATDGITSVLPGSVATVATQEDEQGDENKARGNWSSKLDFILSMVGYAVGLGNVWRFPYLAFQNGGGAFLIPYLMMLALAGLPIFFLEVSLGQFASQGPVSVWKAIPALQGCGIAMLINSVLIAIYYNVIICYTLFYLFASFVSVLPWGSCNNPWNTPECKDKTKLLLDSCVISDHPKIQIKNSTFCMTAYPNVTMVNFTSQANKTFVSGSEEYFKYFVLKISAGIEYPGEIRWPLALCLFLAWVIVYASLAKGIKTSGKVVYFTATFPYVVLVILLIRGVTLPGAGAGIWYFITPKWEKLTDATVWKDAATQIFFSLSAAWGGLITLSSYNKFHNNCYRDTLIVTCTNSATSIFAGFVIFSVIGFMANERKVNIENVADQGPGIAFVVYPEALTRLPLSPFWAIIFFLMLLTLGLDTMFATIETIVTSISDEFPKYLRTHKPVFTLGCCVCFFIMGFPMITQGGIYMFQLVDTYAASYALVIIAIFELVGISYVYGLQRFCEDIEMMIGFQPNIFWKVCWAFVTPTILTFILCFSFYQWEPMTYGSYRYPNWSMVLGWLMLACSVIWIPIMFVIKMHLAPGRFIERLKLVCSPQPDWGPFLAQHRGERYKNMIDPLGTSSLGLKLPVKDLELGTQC

Method: Transient GlyT-transfected cells or control cells grown in accordance with Example 5 were washed three times with HEPES buffered saline (HBS). The control cells were treated precisely as the GlyT-transfected cells except that the transfection procedure omitted any cDNA. […] The cells were then incubated another 20 minutes at 37° C., after which the cells were washed three times with ice-cold HBS. Scintillant was added to the cells, the cells were shaken for 30 minutes, and the radioactivity in the cells was counted using a scintillation counter. Data were compared between the cells contacted or not contacted by a prospective agent, and, where relevant, between cells having GlyT-1 activity versus cells having GlyT-2 activity, depending on the assay being conducted.
Data points represent means±SEM from an experiment performed in quadruplicate.

As usually defined, the pIC50 is −log10 of the IC50, conventionally taken in molar units. In turn, `NCC(=O)O` [glycine] gave a pIC50 of 4.40.
